Data from US10336788B2, “Inhibition of cardiac fibrosis in myocardial infarction” (Moerae Matrix, Inc., priority 2014, dated 2019).
No end group written: not given here.

Tested on: H9C2 cells
Experiment: LDH release assay in H9C2 cells (1% hypoxia or normoxia)
Type: cell-based, rat
Conditions: for LDH release: 1% hypoxia
Description: H9C2 is a myoblast cell line derived from rat myocardium obtained from ATCC® (CRL-1446, ATCC, Manassas, Va.) and cultured according to the recommended protocols. Briefly, cells were maintained at 37° C. with 5% CO2 in DMEM supplemented with 10% fetal bovine serum and antibiotics (100 U/ml penicillin, […] streptomycin) and split at a ratio of 1:4 using 0.05% trypsin every 36 hours. HL-1 cells were obtained from Dr. William Claycomb and cultured according to the published protocols [Claycomb W C, Lanson N A, Jr., Stallworth B S, Egeland D B, Delcarpio J B, Bahinski A, et al. HL-1 cells: a cardiac muscle cell line that contracts and retains phenotypic characteristics of the adult cardiomyocyte. Proc. Natl Acad. Sci. USA. 1998; 95:2979-84; White S M, Constantin P E, Claycomb W C. Cardiac physiology at the cellular level: use of cultured HL-1 cardiomyocytes for studies of cardiac muscle cell structure and function. Am. J. Physiol. Heart Circul. Physiol. 2004; 286:H823-9]. […]
Cells were rinsed in PMS and grown in DMEM (cat. #11966-025, Gibco) for 2 hours prior to initiating hypoxia (simulated ischemia). […] Three different time points were adopted for each of the three cell lines according to the severity of cell death under hypoxia determined by LDH release: for H9C2 cell line: 8 hr; 16 hr; 24 hr; for HL-1 cell line: 4 hr; 8 hr; 12 hr; for cardiac fibroblast cell line: 16 hr; 32 hr; 48 hr.
Cell death was first determined using an LDH release assay (cat. #630117, Clontech), according to the manufacturer's instructions. […] Caspase 3/7 activity was next determined using a commercial Caspase 3/7 activity kit (Cat. #G8091, Promega, Madison, Wis. 53711) in a 384 well plate (Cat. #781903, Greiner bio-one) according to the manufacturer's instructions. […] The resulting cell lysates (25 μl, with 0.6 ug total protein) and Caspase-Glo 3/7 Reagent were added to each well in a 1:1 ratio and the luminescence was read (CLARIOstar, BMG LABTECH GmbH). […]

Which LDH release (100 μM only, 16 hours) does the source give for YARAAARQARAKALARQLGVAA [MMI-0100] here?
Its LDH release is “enhanced”.

And the LDH release (20 and 100 μM, 8 hours)?
Its LDH release is “significantly enhanced”.

What about the “LDH release in normoxic conditions” value (absence of hypoxia, 8 hours) of the same sequence?
Its value is “did not enhance LDH release”.
